# Tests used:
# [1] = Stresso-protective activity, motion stress in slowly rotating drum for 48 hours; format: in vivo, rats; details: 48 h motion stress, 10 mg/kg i.p. four times (invention, ester)
# Protocol: In evaluation of the stresso-protective activity of the compound according to the present invention as a model use was made of a procedure of depriving rats of sleep, meals and water in a slowly rotating drum (at the speed of 0.2 km/h).
# The experiments were carried out on 42 nondescript male rats. In parallel experiments the antistress activity of butanedioic acid mono[(2-dimethylamino)ethyl ester] was studied; as the reference prepartion use was made of the prior art tranquilizer--diazepam which was used in the experiments for this very indication.
# 4 groups of animals were tested in parallel. Groups I and II were placed for 48 hours into a slowly rotating drum, groups III and IV were under normal conditions and were deprived only of meals and water. The compound according to the present invention and butanedioic acid mono[(2-dimethylamino)ethyl ester] were administered intraperitoneally in the dose of 10 mg/kg four times (2 times a day) in the volume of 2.5 ml/kg under the conditions of motion stress (Group I of the animals) and under normal conditions (Group III of animals). The control animals--Group II (active control) and Group IV (passive control) were given a physiological solution. The efficiency of the compound according to the present invention, of butanedioic acid mono[(2-dimethylamino)ethyl ester] and of diazepam was estimated on the basis of a set of characteristics showing the functional activity of the central nervous system, physical fitness and development of basic symptoms of the stress-syndrome.
# The residence of control rats in a slowly-rotating drum over 48 hours results in a noticeable deterioration of all the studied characteristics, especially those of higher nervous activity (learning) and development of stress-syndrome. The state of control animals was characterized by lowering of the overall behavioural activity as determined by the "open-field" test (37±15%) with reference to the passive control level, by a reduction in the speed of development of a conventional avoiding response in an aqueous labyrinth (58±15%), by an increase in the number of mistakes during the teaching time (175±25%), lowering of the ultimate physical endurance as determined by the swimming-with-load test (the load is equal to 10% by mass of the body (70±17%), adrenal hypertrophy (146±16%), thymus atrophy (49±9%) and formation of ulcers on the stomach mucous membrane (5.25±1.0%).
# [2] = Survival of mice on acute cooling; format: in vivo; details: i.p. 1 hour before, 80 mg/kg (invention), 64 mg/kg (ester), 17 mg/kg (sodium succinate)
# Protocol: The activity of the compound according to the present invention was studied in experiments on animals. The effectivemess of the compound according to the present invention was studied for resistance against an acute cold effect in comparison with conventional preparations such as butanedioic acid mono[(2-dimethylamino)ethyl ester] and sodium succinate.
# The experiments were carried out on male mice (tetrahybdrids) with a body mass of 18-20 g which were placed into a cold chamber at a temperature of -15t to -17° C. in separate plastic cages slightly limiting their activity. […] The preparations were administered intraperiotoneally 1 hour before the cold effect the control animals were administered with a physiological solution.
structure (smiles),measurement,setting,value
"CN1C(=O)CN=C(c2ccccc2)c2cc(Cl)ccc21 [Diazepam, diazepam]",Weight coefficient of thymus,[1]; control 0.95 ± 0.18,2.26 g/kg of the initial body mass
same,Weight coefficient of adrenal glands,[1]; control 1.246 ± 0.028,1.010 g/kg of the initial body mass
same,Number of attempts till reaching the learning criterion (water labyrinth),[1]; control 4.75 ± 0.5,7.25
same,Number of ulcers on the stomach mucous membrane,[1]; control 5.25 ± 1.0,1.0
same,Duration of swimming,[1]; control 244 ± 26,210 s
"O=C(O)CCC(=O)O [Sodium succinate, sodium succinate]","Survival, %, 1 hour",[2]; 1 hour of cold at -15 to -17° C.,100%
same,"Survival, %, 2 hours",[2]; 2 hours of cold at -15 to -17° C.,80%
same,"Survival, %, 3 hours",[2]; 3 hours of cold at -15 to -17° C.,70%
same,"Survival, %, 4 hours",[2]; 4 hours of cold at -15 to -17° C.,40%
same,"Survival, %, 5 hours",[2]; 5 hours of cold at -15 to -17° C.,10%
same,"Survival, %, 6 hours",[2]; 6 hours of cold at -15 to -17° C.,0%

# Source: patent publication US4691046A, “Butanedioic acid mono [(2-dimethylamino] ethyl ester)succinate” (Institut Organicheskoi Khimii Ordena Lenina I Ordena …, priority 1986, dated 1987)
